In PubChem BioAssay (NCI) one finds TGI and GI50 data, which are given here for 15 compounds.

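All cell lines were grown in 96-well plates and treated with compound for 48 hours. GI50: concentration for 50% inhibition of growth. TGI: total growth inhibition.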

Test systems include OVCAR-3 ovarian; SK-MEL-28 melanoma; HCT-116 colon; TK-10 renal; MOLT-4 leukemia; OVCAR-8 ovarian; RPMI-8226 leukemia; MDA-N; PC-3 prostate; MCF7 breast.
What all share (experiment): growth of human tumour cells (NCI), 48 h

Take `Cc1cn(C2CC(CCCO)C(CO)O2)c(=O)[nH]c1=O` (configuration not stated): the TGI in the experiment on OVCAR-3 ovarian, with SK-MEL-28 melanoma, in the experiment with HCT-116 colon, in the experiment with TK-10 renal, with MOLT-4 leukemia and in the experiment with OVCAR-8 ovarian was more than 100 µM each time. Besides, the TGI in the experiment with RPMI-8226 leukemia is more than 100 µM. Moreover, in the experiment with MOLT-4 leukemia, the GI50 is more than 100 µM.

`Cc1ccc(-n2cc(-c3ccc(Cl)cc3)c3c(NN)ncnc32)cc1`: the TGI in the experiment on OVCAR-3 ovarian is 12.8 µM; with SK-MEL-28 melanoma, 18.8 µM; with HCT-116 colon, 9.1 µM; in the experiment on TK-10 renal, more than 100 µM; in the experiment on MOLT-4 leukemia, 11.5 µM; in the experiment with MDA-N it was 63.2 µM. Further, the TGI with OVCAR-8 ovarian came out at 7.02 µM; with PC-3 prostate, 56.1 µM.

Take `COc1ccc(C(Cc2ccccc2)C2NC(=S)NC2=O)cc1` (configuration not stated): the TGI with OVCAR-3 ovarian, in the experiment on SK-MEL-28 melanoma, with HCT-116 colon, in the experiment on TK-10 renal, with MOLT-4 leukemia and in the experiment on OVCAR-8 ovarian was more than 25 µM in each case. The TGI with PC-3 prostate, in the experiment on MCF7 breast and in the experiment on RPMI-8226 leukemia was more than 25 µM throughout.

As for `COc1cccc(/C(Cl)=C(\C=O)c2cccc(OC)c2)c1`, the TGI came to 29.1 µM in the experiment on OVCAR-3 ovarian; 25.5 µM in the experiment on SK-MEL-28 melanoma; 15 µM in the experiment with HCT-116 colon; 51.2 µM with TK-10 renal; 78.3 µM in the experiment with MOLT-4 leukemia; 30.5 µM in the experiment with OVCAR-8 ovarian. The compound also showed a TGI in the experiment on RPMI-8226 leukemia of 45.1 µM.

On to `CCOC(=O)C(C)Sc1nnc(COc2ccccc2OC)n1-c1ccccc1` (configuration not stated), for which the TGI is more than 100 µM with OVCAR-3 ovarian; more than 100 µM with SK-MEL-28 melanoma; more than 100 µM with HCT-116 colon; more than 100 µM in the experiment with TK-10 renal; more than 100 µM in the experiment with OVCAR-8 ovarian; 59.9 µM in the experiment with RPMI-8226 leukemia.

For `COC(=O)C1=C(O)C(C(=O)OC)[C@]2(O)[C@@H](C(=O)OC)[C@H]1C[C@@H](c1ccccc1)[C@@H]2C(=O)OC` (some centres not stated), the TGI is 31.8 µM in the experiment on OVCAR-3 ovarian; 64.9 µM in the experiment with SK-MEL-28 melanoma; 21.8 µM in the experiment on HCT-116 colon; 53.5 µM in the experiment with TK-10 renal; 55.6 µM in the experiment on MOLT-4 leukemia; 19.1 µM in the experiment with MDA-N. In addition, the TGI was more than 100 µM with MCF7 breast and 31.7 µM with RPMI-8226 leukemia.

As for `COc1ccc(/C=C/C(=O)c2ccc(-n3cc(CN4CCN(c5cc6c(cc5F)c(=O)c(C(=O)O)cn6C5CC5)CC4)nn3)cc2)cc1OC`, the GI50 in the experiment on OVCAR-3 ovarian was 1.84 µM; with SK-MEL-28 melanoma, 2.77 µM; in the experiment on TK-10 renal it was 5.61 µM; in the experiment with MOLT-4 leukemia it was 3.32 µM; in the experiment with OVCAR-8 ovarian, 4.03 µM; in the experiment with PC-3 prostate it was 2.54 µM. In addition, the GI50 is 0.396 µM in the experiment with MCF7 breast and 0.401 µM with RPMI-8226 leukemia. The TGI with OVCAR-3 ovarian was 4.93 µM; with SK-MEL-28 melanoma, 10.4 µM; in the experiment on TK-10 renal, more than 100 µM; in the experiment with MOLT-4 leukemia it was more than 100 µM; in the experiment with OVCAR-8 ovarian, more than 100 µM; in the experiment with PC-3 prostate, 15.7 µM. The TGI in the experiment with MCF7 breast was more than 100 µM; in the experiment on RPMI-8226 leukemia it was 4.46 µM.

Regarding `CC(C)(C)C(=O)OCC1OC(N=[N+]=[N-])C(OC(=O)C(C)(C)C)C(OC(=O)C(C)(C)C)C1OC(=O)C(C)(C)C` (configuration not stated), the TGI in the experiment on OVCAR-3 ovarian, with SK-MEL-28 melanoma, in the experiment on HCT-116 colon, in the experiment on TK-10 renal, with MOLT-4 leukemia and in the experiment on OVCAR-8 ovarian was more than 100 µM each time. The same compound yielded a TGI with RPMI-8226 leukemia of more than 100 µM.

For the compound `CCOC(=O)c1c(C)nc2c(c1-c1cn(-c3ccccc3)nc1-c1ccccc1)C(=O)c1ccccc1-2`, the TGI in the experiment on OVCAR-3 ovarian, in the experiment on SK-MEL-28 melanoma, in the experiment with HCT-116 colon, in the experiment with TK-10 renal, with MOLT-4 leukemia and with MDA-N was more than 100 µM in each case. Further, the TGI in the experiment with OVCAR-8 ovarian and in the experiment on PC-3 prostate was more than 100 µM each time.

On to `COC(=O)c1c(C)cccc1C1CN=NC12Cc1ccc(C)c(C)c1C2=O` (configuration not stated), for which the TGI in the experiment on OVCAR-3 ovarian is more than 100 µM; in the experiment with SK-MEL-28 melanoma, more than 100 µM; with HCT-116 colon, 45.6 µM; in the experiment on TK-10 renal it was more than 100 µM; with MOLT-4 leukemia it was 66.4 µM; with MDA-N, more than 100 µM. The TGI in the experiment on OVCAR-8 ovarian, in the experiment with MCF7 breast and in the experiment with RPMI-8226 leukemia was more than 100 µM in each case.

Take `CCC(COC(=O)CC[C@@H](NC(=O)C(C)NC(=O)C(C)OC1C(O)C(CO)OC(OCc2ccccc2)C1NC(C)=O)C(N)=O)NC1c2ccccc2Nc2cccc([N+](=O)[O-])c21` (some centres not stated): the TGI in the experiment on OVCAR-3 ovarian, in the experiment on SK-MEL-28 melanoma, with HCT-116 colon, with TK-10 renal, in the experiment with MOLT-4 leukemia and with OVCAR-8 ovarian was more than 100 µM throughout. The same compound showed a TGI in the experiment on RPMI-8226 leukemia of more than 100 µM.

With `Cc1ccnc2nc(N)ccc12`, the TGI in the experiment with SK-MEL-28 melanoma, in the experiment on HCT-116 colon, with TK-10 renal, with MOLT-4 leukemia, in the experiment on MDA-N and with OVCAR-8 ovarian was more than 100 µM each time. For the same compound, the TGI in the experiment with PC-3 prostate and with RPMI-8226 leukemia was more than 100 µM in each case.

Consider `N#C/C(=C\c1ccc([N+](=O)[O-])s1)c1nc2cc(Cl)ccc2s1`, for which the GI50 in the experiment on OVCAR-3 ovarian is 1.42 µM; in the experiment with HCT-116 colon, 0.329 µM; in the experiment on MOLT-4 leukemia it was 2.11 µM; with OVCAR-8 ovarian, 0.555 µM; in the experiment with PC-3 prostate, 1.31 µM; in the experiment with RPMI-8226 leukemia, 0.675 µM. The TGI was 3.23 µM in the experiment with OVCAR-3 ovarian; 1.27 µM with HCT-116 colon; more than 100 µM in the experiment on MOLT-4 leukemia; 69.2 µM in the experiment with OVCAR-8 ovarian; 3.42 µM with PC-3 prostate; 3.26 µM in the experiment with RPMI-8226 leukemia.

Take `O=C1C=C2CCC[C@H]3OC(=O)C[C@@]23CC1`: the TGI in the experiment with OVCAR-3 ovarian, in the experiment with SK-MEL-28 melanoma, with HCT-116 colon, with TK-10 renal, in the experiment with MOLT-4 leukemia and in the experiment on MDA-N was more than 100 µM in each case. Further, the TGI in the experiment on PC-3 prostate and in the experiment on RPMI-8226 leukemia was more than 100 µM in each case.

With `O=c1c2ccccc2nc(-c2ccccc2)n1NC(=S)Nc1ccc(Cl)cc1`, the TGI was 91.6 µM in the experiment on SK-MEL-28 melanoma; more than 100 µM in the experiment on HCT-116 colon; more than 100 µM with TK-10 renal; more than 100 µM in the experiment with MOLT-4 leukemia; more than 100 µM in the experiment on OVCAR-8 ovarian; more than 100 µM in the experiment on RPMI-8226 leukemia.
